Consider 14 compounds from ChEMBL document CHEMBL1157002, “SAR of a series of inhaled A(2A) agonists and comparison of inhaled pharmacokinetics in a preclinical model with clinical pharmacokinetic data” (Bioorg Med Chem Lett, 2009).

The source made the active and inactive calls. The calls are words filed in the database; no cut-off is given here. A value given as a limit tells only on which side of the number the result lay.

For one data set, the target named is Adenosine receptor A2a (Homo sapiens, UniProt P29274).
Chain of Adenosine receptor A2a (P29274 whole entry): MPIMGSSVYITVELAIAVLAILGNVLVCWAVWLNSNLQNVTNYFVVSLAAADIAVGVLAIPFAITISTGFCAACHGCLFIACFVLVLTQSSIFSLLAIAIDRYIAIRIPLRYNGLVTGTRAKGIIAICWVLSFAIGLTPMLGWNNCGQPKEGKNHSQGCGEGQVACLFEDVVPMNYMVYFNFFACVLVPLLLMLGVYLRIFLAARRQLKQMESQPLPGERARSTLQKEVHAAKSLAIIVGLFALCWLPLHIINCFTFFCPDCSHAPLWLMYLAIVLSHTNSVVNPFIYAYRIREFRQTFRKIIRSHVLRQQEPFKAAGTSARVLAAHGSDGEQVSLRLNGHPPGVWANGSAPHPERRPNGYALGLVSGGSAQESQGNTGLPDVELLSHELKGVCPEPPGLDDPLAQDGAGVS
Data set [1] deals with Rattus norvegicus. Kind of data set: Dose normalized fCmax in rat (dose normalized to 1 mg/kg). Format: ADME, organism-based. More on the design: dose 1 mg/kg. To be noted: in vivo.
In data set [2] the test system is Homo sapiens. Kind of data set: Dose normalized fCmax in human at 1600 ug administered by aerosol device measured up to 4 hrs (dose normalized to 1 mg/kg). Format: ADME, organism-based. Set-up: dose 1 mg/kg. The following applies: in vivo.
The test system of data set [3] is Homo sapiens. Kind of data set: Dose normalized fCmax in human at 400 ug administered by aerosol device measured up to 4 hrs (dose normalized to 1 mg/kg). Format: ADME, organism-based. More on the design: dose 1 mg/kg. To be noted: in vivo.
The subject of data set [4] is Rattus norvegicus. Kind of data set: Unbound clearance in rat at 1 mg/kg, iv. To be noted: in vivo. More on the design: dose 1 mg/kg, route intravenous. Format: ADME, organism-based.
For data set [5], the system named is Homo sapiens. Kind of data set: Dose normalized fCmax in human at 200 ug administered by aerosol device measured up to 4 hrs (dose normalized to 1 mg/kg). Format: ADME, organism-based. The following applies: in vivo. More on the design: dose 1 mg/kg.
Data set [6] has as its system Homo sapiens. Kind of data set: Toxicity in human assessed as increase of sitting blood pressure at 200 to 1600 ug administered by aerosol device. The class given is organism-based. To be noted: in vivo, inhaled_or_intranasal.
Data set [7] is described as follows: Intrinsic clearance in human liver microsomes. Format: ADME, Microsome. For orientation: Microsomes from liver hold many membrane-bound enzymes, among them those of drug oxidation.
Data set [8] concerns Homo sapiens. In words: Dose normalized fCmax in human at 800 ug administered by aerosol device measured up to 4 hrs (dose normalized to 1 mg/kg). The class given is ADME, organism-based. Set-up: dose 1 mg/kg. To be noted: in vivo.
The subject of data set [9] is Homo sapiens. Kind of data set: Dose normalized fCmax in human at 100 ug administered by aerosol device measured up to 4 hrs (dose normalized to 1 mg/kg). The class given is ADME, organism-based. The following applies: in vivo. Set-up: dose 1 mg/kg.
The species entered for data set [10] is Cavia porcellus. In words: Inhibition of capsaicin-induced bronchoconstriction in guinea pig at 10 ug up to 8 hrs. Format: functional, organism-based.
Data set [11] in a line: Half life in human at 100 to 1600 ug administered by aerosol device. Format: ADME, organism-based. To be noted: in vivo, inhaled or intranasal.
The nature of data set [12]: Lipophilicity, log D at pH 7.4. Format: physicochemical. The following applies: buffer.
For data set [13], the system named is Cavia porcellus. In words: Toxicity in it dosed guinea pig assessed as decrease of diastolic blood pressure. To be noted: in vivo, inhaled_or_intranasal. The class given is organism-based, Artery.
Data set [14] has as its system Cavia porcellus. In words: Inhibition of capsaicin-induced bronchoconstriction in it dosed guinea pig up to 5 hrs. The class given is functional, organism-based.

Description for Adenosine receptor A2a: Agonist activity at adenosine A2A receptor in fMLP-stimulated human neutrophils assessed as inhibition of superoxide production by colorimetric analysis

By IC50 is commonly meant the concentration that inhibits the measured activity by half. A higher IC50 goes with lower potency. In turn, `CCNC(=O)[C@H]1O[C@@H](n2cnc3c(NCC(c4ccccc4)c4ccccc4)nc(C(=O)NCCN(C)C(=O)NCCN4CCCCC4)nc32)[C@H](O)[C@@H]1O` yielded an IC50 against Adenosine receptor A2a of 305 nM.

At Adenosine receptor A2a, `CCNC(=O)[C@H]1O[C@@H](n2cnc3c(NCC(c4ccccc4)c4ccccc4)nc(C(=O)NCCNC(=O)NCc4ccc(CN(CC)CC)cc4)nc32)[C@H](O)[C@@H]1O` returned an IC50 of 5 nM.

What is called microsomal CLint is a measure of how fast metabolising enzymes remove a compound, apart from limits set by blood flow. A low value points to slow turnover. The half-life is the time in which the quantity being followed falls by half. A lower half-life goes with rapid decline. As for `CCNC(=O)[C@H]1O[C@@H](n2cnc3c(NCC(c4ccccc4)c4ccccc4)nc(C(=O)NCCNC(=O)NC4CCN(c5ccccn5)CC4)nc32)[C@H](O)[C@@H]1O` [UK432097], the Cmax_unbound is 0.2 nM in the data set on Rattus norvegicus [1]; 0.12 nM in the data set with Homo sapiens [2]; 0.19 nM in the data set with Homo sapiens [3]; 0.3 nM in the data set with Homo sapiens [5]; 0.19 nM with Homo sapiens [8]; 0.45 nM in the data set with Homo sapiens [9]. For the same compound, the CL free in the data set with Rattus norvegicus [4] was 330 L/h/kg. The Activity result in the data set with Homo sapiens [6] is listed as “Toxic”. The compound also registered a microsomal CLint in [7] above 255 µL/min/mg. For the same compound, the result in the data set filed under Cavia porcellus [10] was Active. In data set [11], the half-life was 3 h.

For orientation: logD means lipophilicity at a set pH, counting ionised and neutral species. High values mean higher lipophilicity, low ones lower lipophilicity. With `CCNC(=O)[C@H]1O[C@@H](n2cnc3c(NCC(c4ccccc4)c4ccccc4)nc(CNC(=O)NCCN(C(C)C)C4CCCC4)nc32)[C@H](O)[C@@H]1O`, the Cmax_unbound with Rattus norvegicus [1] was 1.8 nM. Moreover, the CL free in the data set on Rattus norvegicus [4] amounted to 210 L/h/kg. Also, in data set [12], the logD turned out to be 2.

Turning to `CCNC(=O)[C@H]1O[C@@H](n2cnc3c(NCC(c4ccccc4)c4ccccc4)nc(CNC(=O)NCCN4CCCCC4)nc32)[C@H](O)[C@@H]1O`, the Activity entry in the data set on Cavia porcellus [13] is reported as “Non-toxic”. Besides, the result in the data set with Cavia porcellus [14] was Active.

The compound `CCNC(=O)[C@H]1O[C@@H](n2cnc3c(NCC(c4ccccc4)c4ccccc4)nc(C(=O)NCCNC(=O)NCc4ccccc4)nc32)[C@H](O)[C@@H]1O` registered an IC50 at Adenosine receptor A2a of 6 nM.

For the compound `CCNC(=O)[C@H]1O[C@@H](n2cnc3c(NCC(c4ccccc4)c4ccccc4)nc(C(=O)NCCNC(=O)NCCN(C(C)C)C4CCCC4)nc32)[C@H](O)[C@@H]1O`, the IC50 on Adenosine receptor A2a was 7 nM.

Take `CCNC(=O)[C@H]1O[C@@H](n2cnc3c(NCC(c4ccccc4)c4ccccc4)nc(C(=O)NCCNC(=O)NCCN4CCc5ccccc5C4)nc32)[C@H](O)[C@@H]1O`: on Adenosine receptor A2a, 10 nM corresponded to half-maximal inhibition (IC50). This IC50 and that of the compound before are within 1.5-fold of each other.

`CCNC(=O)[C@H]1O[C@@H](n2cnc3c(NCC(c4ccccc4)c4ccccc4)nc(C(=O)NCCNC(=O)NCCN4CCCCC4)nc32)[C@H](O)[C@@H]1O` registered an IC50 at Adenosine receptor A2a of 5 nM.

On to `CCNC(=O)[C@H]1O[C@@H](n2cnc3c(NCC(c4ccccc4)c4ccccc4)nc(C(=O)NCCNC(=O)NCc4ccccn4)nc32)[C@H](O)[C@@H]1O`, for which, at Adenosine receptor A2a, the IC50 amounted to 4 nM.

In the data set on Rattus norvegicus [1], `CCNC(=O)[C@H]1O[C@@H](n2cnc3c(NCC(c4ccccc4)c4ccccc4)nc(C(=O)NCCNC(=O)NCCN(C(C)C)C(C)C)nc32)[C@H](O)[C@@H]1O` had a Cmax_unbound of 12.3 nM. The IC50 against Adenosine receptor A2a stood at 5 nM. Besides, the CL free with Rattus norvegicus [4] came out at 45 L/h/kg. The microsomal CLint in data set [7] came out at 81 µL/min/mg. For the same compound, the logD in data set [12] came out at 0.9.

`O=C(NCCNC(=O)c1nc(NCC(c2ccccc2)c2ccccc2)c2ncn([C@@H]3O[C@H](CO)[C@@H](O)[C@H]3O)c2n1)NCCN1CCCCC1` came in with an IC50 at Adenosine receptor A2a of 45 nM.

Compound `CCNC(=O)[C@H]1O[C@@H](n2cnc3c(NCC(c4ccccc4)c4ccccc4)nc(C(=O)NCCNC(=O)NCCc4ccccc4)nc32)[C@H](O)[C@@H]1O` showed an IC50 at Adenosine receptor A2a of 10 nM.

For the compound `CCNC(=O)[C@H]1O[C@@H](n2cnc3c(NCC(c4ccccc4)c4ccccc4)nc(C(=O)NCCNC(=O)NCc4ccc(C(=O)O)cc4)nc32)[C@H](O)[C@@H]1O`, on Adenosine receptor A2a, the IC50 stood at 0.4 nM.
